The target in one test is T1, recombinant human ARG1 (Homo sapiens, UniProt P05089).
T1 construct: purchased R&D System 5868-AR-010
T1 sequence (P05089 1-322): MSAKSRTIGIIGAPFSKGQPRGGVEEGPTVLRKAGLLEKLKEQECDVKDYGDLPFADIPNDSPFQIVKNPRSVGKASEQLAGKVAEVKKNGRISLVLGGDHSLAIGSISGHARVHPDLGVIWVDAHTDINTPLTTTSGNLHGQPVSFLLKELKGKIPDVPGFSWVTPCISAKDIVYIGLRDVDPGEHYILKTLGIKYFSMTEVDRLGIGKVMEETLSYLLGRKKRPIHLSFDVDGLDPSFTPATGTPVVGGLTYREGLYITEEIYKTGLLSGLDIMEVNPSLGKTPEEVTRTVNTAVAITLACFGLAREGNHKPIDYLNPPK
The experiment in a line: Arginase enzymatic assay in vitro, recombinant human ARG1 (colorimetric urea detection). The settings on record: recombinant human arginase 1; read-out: IC50 Inh rhARG1. The test is classed as biochemical. From the text: (§1) Arginase catalyzes the hydrolysis of L-arginine into L-ornithine and urea. Urea amount produced by this reaction can be detected using a colorimetric assay and used as an indirect measurement of arginase activity. An adapted protocol from (Baggio, R., et al., J Pharmacol Exp Ther, 1999. 290(3): p. 1409-16) was used for the testing the ability of exemplary compounds of the invention to inhibit arginase enzymes from a variety of sources including recombinant human ARG1 and 2, lysates of human red blood cells (RBC) and intact murine macrophages, as described below.
(§2) Compounds of the invention were prepared from powder as 10 mM stock solutions in DMSO and stored in presence of N2 neutral atmosphere at −80° C. For IC50 determination and just before the assay, exemplary compounds were successively diluted to get the following concentrations: 210, 70, 21, 7, 2.1, 0.7, 0.21, 0.07, 0.021, 0.007, 0.0021 and 0.0007 μM (i.e., final concentrations in the wells of 30, 10, 3, 1, 0.3, 0.1, 0.03, 0.01, 0.003, 0.001, 0.0003, 0.0001 μM).
(§3) Assays were run in clear flat bottom 96-well plates (Nunclon, Cat. No. #167008) adding in each well the following solutions in this order: (1) 10 μl of Tris-HCl solution supplemented with 0.1% bovine serum albumin (BSA) containing 1.563 μg/ml recombinant human ARG1 (R&D System, Cat. No. #5868-AR-010), (2) 30 μl of Tris-HCl buffer containing 10 mM MnCl2 and (3) 10 μL of a pre-dilution of each test article or DMSO (vehicle). Compounds were allowed to interact with the enzyme-cofactor complex pre-incubating the plate at 37° C. for 30 min. To start the reaction, 20 μl of 50 mM L-arginine (Sigma Aldrich Cat. #A5006-100G) were added to each well in exception of the blank reaction (see below). All reactions were allowed to happen for 1 h at 37° C. To detect the urea production, reactions were stopped by adding 200 μl of a mixture of reagent A (4 mM o-phthalaldehyde in 50 mM Boric Acid, 1 M Sulfuric Acid, 0.03% Brij-35 (w/v)) and reagent B (4 mM N-(1-naphthyl)ethylenediamine in 50 mM Boric Acid, 1 M Sulfuric Acid, 0.03% Brij-35 (w/v)) in equal proportion. Color product was developed for 1 h at room temperature (RT) protected from light and then absorbance at 520 nm was measured using a Multifunction Microplate Reader (Synergy 4, Bioteck). Blank reactions were carried out by adding the L-arginine substrate only after the addition of mixture A-B. All reactions were carried out in duplicates.
(§4) The inhibition of urea production was calculated subtracting the absorbance from the blank reaction (zero enzymatic urea production) to the absorbance from all reactions and it was expressed as the percentage of the absorbance from the reaction containing the test article with respect to the absorbance from vehicle reaction (maximum of urea production).

In test [1] the target is T2, arginase activity in intact BMM-M2 cells (Mus musculus, UniProt Q61176).
T2 construct: endogenous in cells; host or cells: bone-marrow derived macrophages from male C57BL/6 mice, polarised to M2 with IL-4
T2 sequence (Q61176 1-323): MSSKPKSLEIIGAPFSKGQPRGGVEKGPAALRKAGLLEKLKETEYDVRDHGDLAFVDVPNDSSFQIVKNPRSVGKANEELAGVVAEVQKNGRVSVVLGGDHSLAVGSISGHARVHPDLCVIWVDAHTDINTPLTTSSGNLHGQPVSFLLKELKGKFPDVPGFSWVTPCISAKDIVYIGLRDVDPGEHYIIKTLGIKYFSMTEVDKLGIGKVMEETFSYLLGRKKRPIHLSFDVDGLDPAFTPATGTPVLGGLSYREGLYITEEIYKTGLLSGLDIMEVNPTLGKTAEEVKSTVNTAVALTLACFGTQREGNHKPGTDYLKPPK
Description: Cell-based arginase assay: urea production by cultured BMM-M2 cells. The settings on record: 10 μM test compound, 24 h; for inhibition at 10 µM: read-out: Inh. urea production @10 μM (%). As for the experimental part: Murine bone-marrow derived macrophages (BMM) represent a convenient in vitro model that enables differentiation of these cells towards M1 or M2 macrophages. Briefly, male C57BL/6 mice 7-8 weeks old were euthanized by carbon dioxide asphyxiation. Femur and tibiae bones were removed under aseptic conditions and collected in a plate containing sterile ice-cold PBS 1×. After sterilization of bones in 70% ethanol during 1 min, bones were placed into a clean Petri dish containing fresh sterile ice-cold PBS 1×. The ends of each bone were cut and the marrow cavity was flushed using forceps and syringes filled with pre-warmed complete α-MEM growing medium (α-MEM without red phenol (Life Technologies, Cat. No. #41061-029) supplemented with 10% FBS, penicillin and streptomycin). Bone marrow (BM) cells were harvested in a 15 ml clean tube and centrifuged at 400 g for 8 min at RT. Supernatant was discarded and BM pellet was re-suspended in 5 ml Ammonium-Chloride-Potassium (ACK) buffer for 5 minutes at RT to lysis RBC. BM cell suspension was centrifuged at 400 g for 8 min at RT. Supernatant was discarded and BM cell pellet was re-suspended in complete α-MEM growing medium and passed through a 70 μm cell restrainer to eliminate solid contaminates and cellular aggregates. BM cells were seeded in 8 ml of complete α-MEM growing medium supplemented with 100 ng/ml recombinant mouse M-CSF (R&D Systems, Cat. No. #416-ML-050) in 100-mm dishes. BM cells were cultured overnight to get rid of contaminating stromal cells in a humidified incubator with 5% CO2 at 37° C. At the following day, non-adherent cells were collected in a clean 15-ml tube and centrifuged at 400 g for 8 min at RT. Cell pellet was re-suspended in complete α-MEM growing medium and counted using a hemocytometer Neubauer's chamber. Hematopoietic precursor cells were differentiated into BMM in presence of complete α-MEM growing medium supplemented 50 ng/ml M-CSF for 3 days. Finally to polarize BMM towards M2 phenotype, cells were incubated in presence 20 ng/ml of recombinant mouse IL-4 (R&D Systems, Cat. No. #404-ML-010) added to fresh complete α-MEM growing medium supplemented 50 ng/ml M-CSF for 24 h.
At the day of the experiment, BMM-M2 were treated for 24 h with vehicle (DMSO) or compounds of the invention at 1 and 10 μM prepared in fresh complete α-MEM growing medium supplemented 50 ng/ml M-CSF, 20 ng/ml IL-4 and 10 mM L-arginine (Cat. No. #A5006, Sigma Aldrich). At the next day, 70 μl aliquots of each treated culture media (supernatants) were transferred into a clear 96-well plate. Measurements of urea produced by BMM-M2 were performed using the adapted protocol detailed in Example B1. Wells without BMM-M2 containing only treatment media (vehicle) were used to determine the zero cell-derived urea production (blank). All treatments were carried out in triplicates.
The inhibition of urea production was calculated subtracting the absorbance from the blank to the absorbance from all treatments and it was expressed as the percentage of the absorbance from the reaction containing the test article treatment with respect to the absorbance from vehicle treatment (maximum of urea production).

Another test addresses T3, recombinant human ARG2 (Homo sapiens, UniProt P78540).
T3 construct: purchased BPS Bioscience 71659
T3 sequence (P78540 23-354): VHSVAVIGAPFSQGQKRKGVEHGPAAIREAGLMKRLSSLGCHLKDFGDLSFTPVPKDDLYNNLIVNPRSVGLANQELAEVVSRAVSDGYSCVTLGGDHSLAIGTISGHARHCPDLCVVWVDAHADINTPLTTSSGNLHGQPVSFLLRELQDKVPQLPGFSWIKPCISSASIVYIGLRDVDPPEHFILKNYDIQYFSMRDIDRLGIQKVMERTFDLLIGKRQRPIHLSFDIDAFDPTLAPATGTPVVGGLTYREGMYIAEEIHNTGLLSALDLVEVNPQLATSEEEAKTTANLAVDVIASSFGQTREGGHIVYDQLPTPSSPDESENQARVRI
The experiment in a line: Arginase enzymatic assay in vitro, recombinant human ARG2 (colorimetric urea detection). The format is biochemical. The settings on record: recombinant human arginase 2; read-out: IC50 Inh rhARG2.
Excerpt: as §1, §2, §3, §4
For testing inhibitory activity over recombinant human arginase II, 10 μl of Tris-HCl solution supplemented with 0.1% BSA containing 1.5 μg/ml recombinant human ARG2 (BPS Bioscience, Cat. No. #71659) was used instead of ARG1.

The target of test [2] is T4, native ARG1 enzyme in lysates of RBC (Homo sapiens, UniProt P05089).
T4 construct: native ARG1 enzyme in lysates of RBC; from tissue; host or cells: human red blood cell lysates from healthy donors
T4 sequence (P05089 1-322): T1 sequence (P05089 1-322)
Description: Arginase enzymatic assay in RBC lysates from healthy donors. The settings on record: human red blood cell lysates; read-out: IC50 Inh RBC. The format is biochemical.
Excerpt: as §1, §2, §3, §4
For testing inhibitory activity over RBC lysates from healthy donors, 10 μl of Tris-HCl solution supplemented with 0.1% BSA containing 160 μg RBC lysates per well was used instead.

By IC50 is commonly meant the concentration needed to halve the response being measured.

Consider `CC(c1c(F)cccc1F)N1CCC(C(N)(CCCCB(O)O)C(=O)O)CC1` (single isomer, unassigned) [Compound 92, 2-amino-6-borono-2-(1-(1-(2,6-difluorophenyl)ethyl)piperidin-4-yl)hexanoic acid], for which the 50% inhibitory concentration (IC50) on recombinant human ARG1 and on recombinant human ARG2 was 500 to 5000 nM throughout. In test [1], the inhibition at 10 µM was less than 15%.
As for `NC(CCCCB(O)O)(C(=O)O)C1CCN(C2CCc3ccc(C(F)(F)F)cc32)CC1` (single isomer, unassigned) [Compound 35, 2-amino-6-borono-2-[1-[6-(trifluoromethyl)indan-1-yl]-4-piperidyl]hexanoic acid], the IC50 on recombinant human ARG1 and at recombinant human ARG2 was less than 500 nM each time. Moreover, the inhibition at 10 µM in test [1] is less than 15%.
As for `CC(c1c(Cl)cccc1Cl)N1CCC(C(N)(CCCCB(O)O)C(=O)O)CC1` (single isomer, unassigned) [Compound 91, 2-amino-6-borono-2-(1-(1-(2,6-dichlorophenyl)ethyl)piperidin-4-yl)hexanoic acid], the IC50 on recombinant human ARG1 was less than 500 nM; on recombinant human ARG2 it was 500 to 5000 nM. For the same molecule, the inhibition at 10 µM in test [1] was greater than 25%.
On to `NC(CCCCB(O)O)(C(=O)O)C1CCN(C2CCCc3cc(Cl)ccc32)CC1` (stereo not drawn) [Compound 16, 2-amino-6-borono-2-(1-(6-chloro-1,2,3,4-tetrahydronaphthalen-1-yl)piperidin-4-yl)hexanoic acid], for which the IC50 (at recombinant human ARG1; on recombinant human ARG2; in test [2]) was less than 500 nM each time.
With `NC(=O)C(N)(CCCCB(O)O)C1CCN(C2CCc3cc(Cl)ccc32)CC1` (stereo not drawn) [Compound 81, (5,6-diamino-5-(1-(5-chloro-2,3-dihydro-1H-inden-1-yl)piperidin-4-yl)-6-oxohexyl)boronic acid], the IC50 is 500 to 5000 nM at recombinant human ARG1, 500 to 5000 nM at recombinant human ARG2 and less than 500 nM in test [2].
For `NC(CCCCB(O)O)(C(=O)O)C1CCN(C2CCCc3cccnc32)CC1` (single isomer, unassigned) [Compound 32, 2-amino-6-borono-2-(1-(5,6,7,8-tetrahydroquinolin-8-yl)piperidin-4-yl)hexanoic acid], the IC50 (on recombinant human ARG1; on recombinant human ARG2; in test [2]) was less than 500 nM each time.
Take `NC(CCCCB(O)O)(C(=O)O)C1CCN(C2CCCc3cc(Cl)ccc32)C1` (stereo not drawn) [Compound 48, 2-amino-6-borono-2-[1-(6-chlorotetralin-1-yl)pyrrolidin-3-yl]hexanoic acid]: the IC50 at recombinant human ARG1 and at recombinant human ARG2 was 500 to 5000 nM throughout. In test [1], the inhibition at 10 µM was less than 15%.
Take `NC(CCCCB(O)O)(C(=O)O)C1CCN(C2CCCc3c(Br)cccc32)CC1` (single isomer, unassigned) [Compound 86, 2-amino-6-borono-2-(1-(5-bromo-1,2,3,4-tetrahydronaphthalen-1-yl)piperidin-4-yl)hexanoic acid]: the IC50 is less than 500 nM at recombinant human ARG1 and 500 to 5000 nM on recombinant human ARG2. In addition, the “Inh. urea production @10 μM (%)” value in test [1] is reported as “++ (25% < % inhibition < 15% at 10 μM test compound)”.
